Assay results reported in PubChem BioAssay (NCI).
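Cells were grown in 96-well plates and exposed to each compound for 48 hours at five concentrations; endpoints were interpolated linearly between bracketing concentrations, or set to the highest concentration if not reached. The concentration for full growth arrest is given as TGI.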

Experiments:
Assay in all cases: NCI-60 cell line screen, 48 h
KM20L2 colon = tested on: KM20L2 colon
HOP-62 NSCLC = tested on: HOP-62 NSCLC
RPMI-8226 leukemia = tested on: RPMI-8226 leukemia
COLO 205 colon = tested on: COLO 205 colon
SK-MEL-28 melanoma = tested on: SK-MEL-28 melanoma
CAKI-1 renal = tested on: CAKI-1 renal
HT29 colon = tested on: HT29 colon
OVCAR-5 ovarian = tested on: OVCAR-5 ovarian
OVCAR-3 ovarian = tested on: OVCAR-3 ovarian
DMS 273 small cell lung = tested on: DMS 273 small cell lung
HL-60(TB) leukemia = tested on: HL-60(TB) leukemia

Row | SMILES | TGI (KM20L2 colon) | TGI (HOP-62 NSCLC) | TGI (RPMI-8226 leukemia) | TGI (COLO 205 colon) | TGI (SK-MEL-28 melanoma) | TGI (CAKI-1 renal) | TGI (HT29 colon) | TGI (OVCAR-5 ovarian) | TGI (OVCAR-3 ovarian) | TGI (DMS 273 small cell lung) | TGI (HL-60(TB) leukemia)
1 | S=c1nc[nH]c2c1ncn2C1CCCO1 (configuration not stated) | > 100 µM | > 100 µM | > 100 µM | > 100 µM | > 100 µM | > 100 µM | > 100 µM | > 100 µM | > 100 µM | > 100 µM | > 100 µM
2 | c1cc2c(cc1C1=NCCN1)c1cc(C3=NCCN3)ccc1n2CC1CCCCC1 | – | 94.8 µM | > 100 µM | 20.4 µM | 26.7 µM | > 100 µM | > 100 µM | 95.6 µM | > 100 µM | – | 59.6 µM
3 | O=C(Nc1ccc2ccccc2c1)c1cc2cc(CCl)ccc2oc1=O | – | > 100 µM | > 100 µM | > 100 µM | > 100 µM | > 100 µM | > 100 µM | > 100 µM | > 100 µM | – | > 100 µM
4 | CC(C)NC(=O)OCc1c(COC(=O)NC(C)C)c(-c2cc[n+](COC(=O)C3CCCCC3)cc2)n2c1CCC2 | – | > 100 µM | > 100 µM | > 100 µM | > 100 µM | > 100 µM | > 100 µM | > 100 µM | > 100 µM | – | > 100 µM
5 | O=c1cc(N2CCCC2)[nH]c(=O)n1-c1ccc(Cl)cc1 | – | > 100 µM | > 100 µM | > 100 µM | > 100 µM | > 100 µM | > 100 µM | > 100 µM | > 100 µM | – | > 100 µM
6 | CC(C)C(NC(=O)C(Cc1ccccc1)NC(=O)[C@H]1CCC[C@H]1NC(=O)C(Cc1ccc(OC(C)(C)C)cc1)NC(=O)OC(C)(C)C)C(N)=O (some centres not stated) | – | 32.5 µM | > 100 µM | 36.9 µM | 40 µM | > 100 µM | 53.3 µM | 36.2 µM | 69.3 µM | – | > 100 µM
7 | Cc1ccc2c(c1C)C(=O)/C(=C/c1cccc(C)c1C(=O)O)C2 | – | > 100 µM | > 100 µM | > 100 µM | > 100 µM | > 100 µM | > 100 µM | > 100 µM | > 100 µM | – | > 100 µM
8 | O=C(Nc1ccc(Cl)cc1)c1cc(S(=O)(=O)Nc2n[nH]c(=O)n2-c2ccccc2)c(S)cc1Cl | – | > 100 µM | > 100 µM | > 100 µM | > 100 µM | > 100 µM | > 100 µM | > 100 µM | > 100 µM | – | > 100 µM
9 | COC(=O)C(NC(=O)OC(C)(C)C)P(=O)(OC)OC (configuration not stated) | – | > 100 µM | > 100 µM | > 100 µM | > 100 µM | > 100 µM | > 100 µM | > 100 µM | > 100 µM | – | > 100 µM
10 | Cc1cc(=O)oc2c(CNC(CC(C)C)C(=O)O)c(O)ccc12 (configuration not stated) | – | > 100 µM | > 100 µM | > 100 µM | > 100 µM | > 100 µM | > 100 µM | > 100 µM | > 100 µM | – | > 100 µM
11 | C(=C/c1nc2ccccc2o1)/c1ccc2c(c1)OCO2 | > 53 µM | 45.7 µM | > 100 µM | > 100 µM | > 100 µM | 40 µM | > 81.8 µM | > 100 µM | 29.1 µM | > 37.5 µM | > 96.5 µM
12 | N#Cc1nc(/C=C/c2cccnc2)oc1N | – | > 100 µM | > 100 µM | > 100 µM | > 100 µM | > 100 µM | > 100 µM | > 100 µM | > 100 µM | – | > 100 µM
13 | O=C1CC(c2ccccc2)S(=O)c2ccccc2N1 (configuration not stated) | – | > 100 µM | > 100 µM | > 100 µM | > 100 µM | > 100 µM | > 100 µM | > 100 µM | > 100 µM | – | > 100 µM
14 | COc1cc2c3c(cc(Cl)nc3c1OC)C(O)(CC(=O)c1ccccc1)C(=O)N2 (configuration not stated) | – | 36 µM | > 26.3 µM | 52.4 µM | 33.5 µM | 31.6 µM | 44.7 µM | 35.3 µM | 30.2 µM | – | 3.68 µM
15 | CCCCCCCCCCCCOP(=O)(O)OP(=O)(O)OCC1OC(n2cc(C)c(=O)[nH]c2=O)CC1O (configuration not stated) | – | > 100 µM | > 100 µM | > 100 µM | > 100 µM | > 100 µM | > 100 µM | > 100 µM | > 100 µM | – | > 100 µM
16 | CC(=O)OCC1OC(n2c(-c3ccccc3)c(N=Nc3ccc(C)cc3)c(C)c(C#N)c2=S)C(OC(C)=O)C(OC(C)=O)C1OC(C)=O (configuration not stated) | – | 50.1 µM | > 100 µM | > 100 µM | 94.4 µM | 64.5 µM | > 100 µM | 51.6 µM | 64.7 µM | – | > 100 µM
17 | O=C(NCCCCCN1CCC2(CCCCC2)CC1)C(C1CCCCC1)C1CCCCC1 | – | 4.07 µM | 4.71 µM | 2.84 µM | 3.64 µM | 11.6 µM | 4.62 µM | 17.7 µM | 8.97 µM | – | 3.62 µM
